This is an account of results in patent publication US20260207592A1, “PHARMACEUTICAL SUSPENSION OF NILOTINIB” (RENATA PHARMACEUTICALS (IRELAND) LIMITED, priority 2022, published 2026).

Values after ≈ are worked out from the molar mass of the structure shown. Where a name gives a salt, the structure may show the parent alone.

For series [1] the following is noted: cited from earlier work.
Series [2] is described as follows: physchem.
The nature of series [3]: physchem. The settings on record: 0.01N HCl, simulated gastric fluid.
Series [4] in a line: Selection of surfactants: API solubility with different surfactants. Particulars: solubility not done, observation.

In the case of `Cc1cn(-c2cc(NC(=O)c3ccc(C)c(Nc4nccc(-c5cccnc5)n4)c3)cc(C(F)(F)F)c2)cn1` [Nilotinib, 4-Methyl-3-[[4-(3-pyridinyl)-2-pyrimidinyl]amino]-N-[5-(4-methyl-1H-imidazol-1-yl)-3-(trifluoromethyl)phenyl] benzamide], the “solubility in alcohol (descriptive)” value in series [1] (alcohol) is listed as “slightly soluble”. In series [1] (water), the solubility in water was 0.2 µg/mL (≈ 0.378 µM) and the “solubility in water (descriptive)” value was “very slightly soluble”.

The solubility is the concentration that dissolves in the medium under given conditions. Low values mean a poorly soluble substance, high ones a readily soluble substance. `Cc1cn(-c2cc(NC(=O)c3ccc(C)c(Nc4nccc(-c5cccnc5)n4)c3)cc(C(F)(F)F)c2)cn1` [API, Nilotinib Hydrochloride Monohydrate]: the solubility is 0.2 µg/mL in series [2]; 321 µg/mL in series [2] (poloxamer 188 solution, 100 mg/ml, aqueous with cosolvent or surfactant or cyclodextrin); 227 µg/mL in series [2] (poloxamer 407 solution, 10 mg/ml, aqueous with cosolvent or surfactant or cyclodextrin); 478 µg/mL in series [2] (polysorbate 20 solution, 5 mg/ml, aqueous with cosolvent or surfactant or cyclodextrin); 494 µg/mL in series [3]; “Not done (Large lump formed” in series [4] (SLS, 5 mg/ml). For the same compound, in series [4] (Span 80, 150 ml/ml), the solubility result is on record as “Not done (phase separation observed”.
